# How the values were obtained:
# Experiment in all cases: relative viability (nuclei count vs DMSO), 5 days (fraction); higher = more cells survive
# Doramapimod + Crizotinib = compound: Cc1ccc(-n2nc(C(C)(C)C)cc2NC(=O)Nc2ccc(OCCN3CCOCC3)c3ccccc23)cc1 [Doramapimod] + C[C@@H](Oc1cc(-c2cnn(C3CCNCC3)c2)cnc1N)c1c(Cl)ccc(F)c1Cl [Crizotinib] (partner 1 µM)
# How it was run: (§1)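 Values are medians from duplicate plates. Each reflects relative viability, defined as the nuclei count of treated wells over that of vehicle wells. Lung cancer cell lines in 1536-well plates were pin-tool dosed one day after seeding with one drug alone or with a fixed anchor-drug dose plus five library-drug doses (not always all listed) in √10 steps, then fixed, stained and imaged at 4× after 5 days.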
# RAF265 + Crizotinib = compound: Cn1c(Nc2ccc(C(F)(F)F)cc2)nc2cc(Oc3ccnc(-c4ncc(C(F)(F)F)[nH]4)c3)ccc21 [RAF265] + C[C@@H](Oc1cc(-c2cnn(C3CCNCC3)c2)cnc1N)c1c(Cl)ccc(F)c1Cl [Crizotinib] (partner 1 µM)
# How it was run: as §1
# RAF265 + Pemetrexed = compound: Cn1c(Nc2ccc(C(F)(F)F)cc2)nc2cc(Oc3ccnc(-c4ncc(C(F)(F)F)[nH]4)c3)ccc21 [RAF265] + Nc1nc2[nH]cc(CCc3ccc(C(=O)N[C@@H](CCC(=O)O)C(=O)O)cc3)c2c(=O)[nH]1 [Pemetrexed] (partner 0.2 µM)
# How it was run: as §1
# RAF265 + Luminespib = compound: Cn1c(Nc2ccc(C(F)(F)F)cc2)nc2cc(Oc3ccnc(-c4ncc(C(F)(F)F)[nH]4)c3)ccc21 [RAF265] + CCNC(=O)c1noc(-c2cc(C(C)C)c(O)cc2O)c1-c1ccc(CN2CCOCC2)cc1 [Luminespib] (partner 0.01 µM)
# How it was run: as §1
Cell Line,relative viability (Doramapimod + Crizotinib; first compound 0.02 µM),relative viability (Doramapimod + Crizotinib; first compound 0.06325 µM),relative viability (Doramapimod + Crizotinib; first compound 0.2 µM),relative viability (Doramapimod + Crizotinib; first compound 0.6325 µM),relative viability (Doramapimod + Crizotinib; first compound 2 µM),relative viability (RAF265 + Crizotinib; first compound 0.01 µM),relative viability (RAF265 + Crizotinib; first compound 0.03162 µM),relative viability (RAF265 + Crizotinib; first compound 0.1 µM),relative viability (RAF265 + Crizotinib; first compound 0.3162 µM),relative viability (RAF265 + Crizotinib; first compound 1 µM),relative viability (RAF265 + Pemetrexed; first compound 0.01 µM),relative viability (RAF265 + Pemetrexed; first compound 0.03162 µM),relative viability (RAF265 + Pemetrexed; first compound 0.1 µM),relative viability (RAF265 + Pemetrexed; first compound 0.3162 µM),relative viability (RAF265 + Pemetrexed; first compound 1 µM),relative viability (RAF265 + Luminespib; first compound 0.01 µM),relative viability (RAF265 + Luminespib; first compound 0.03162 µM),relative viability (RAF265 + Luminespib; first compound 0.1 µM),relative viability (RAF265 + Luminespib; first compound 0.3162 µM),relative viability (RAF265 + Luminespib; first compound 1 µM)
NCI-H2085,0.86,0.871,0.851,0.95,0.655,0.696,0.886,0.858,1.05,0.806,1.09,0.768,0.938,0.806,0.903,0.493,0.403,0.492,0.428,0.427
NCI-H2087,0.982,0.888,0.922,0.908,0.988,0.71,0.7,0.818,0.637,0.692,0.599,0.669,0.549,0.649,0.543,0.136,0.209,0.214,0.162,0.16
NCI-H2126,0.966,1.06,1.06,1.11,1.05,1.02,1.04,1.03,0.96,0.754,0.703,0.669,0.65,0.605,0.554,0.918,0.87,0.908,0.628,0.654
NCI-H2170,1.12,1.2,1.09,1.22,1.14,1.22,1.08,1.09,0.784,0.771,0.245,0.258,0.263,0.261,0.251,0.791,0.658,0.688,0.254,0.381
NCI-H2228,0.465,0.385,0.425,0.546,0.44,0.382,0.369,0.333,0.356,0.321,0.325,0.353,0.303,0.297,0.268,0.191,0.118,0.186,0.126,0.0971
NCI-H2347,0.789,0.568,0.745,0.762,0.644,0.699,0.664,0.504,0.551,0.287,0.392,0.371,0.406,0.446,0.351,0.445,0.775,0.849,0.337,0.234
NCI-H2405,0.822,0.826,0.877,0.996,0.798,0.846,0.803,0.872,0.756,0.566,1.14,0.922,0.91,0.662,0.516,0.638,0.812,0.722,0.476,0.548
NCI-H3122,0.268,0.267,0.223,0.256,0.266,0.305,0.287,0.305,0.251,0.283,0.197,0.21,0.198,0.209,0.195,0.0828,0.0692,0.0932,0.0953,0.0538
PC-3 [JPC-3],1,1,1.06,1.08,0.955,0.989,0.986,1.06,0.417,0.63,1.17,1.11,1.24,0.42,0.621,0.667,0.654,0.713,,0.386
PC-14,0.896,0.913,0.906,0.855,0.853,0.872,0.818,0.995,,0.68,0.115,0.138,0.144,,0.158,0.163,0.128,0.248,,0.139
RERF-LC-KJ,0.88,0.888,0.826,0.789,0.823,0.867,0.818,0.93,0.852,0.632,0.504,0.482,0.503,0.46,0.51,1.34,1.22,1.08,0.763,0.713
SK-LU-1,0.915,0.929,0.909,0.83,0.92,0.45,0.753,0.73,0.477,0.397,0.893,0.838,0.711,0.544,0.435,0.203,0.182,0.177,0.185,0.176
SK-MES-1,1.01,0.977,0.933,0.917,0.887,1,0.88,0.919,0.334,0.242,0.941,0.698,0.48,0.366,0.326,0.726,0.414,0.33,0.228,0.191
SW 1573,0.827,0.613,0.646,0.75,0.743,0.869,0.632,0.842,0.663,0.406,0.872,0.833,0.753,0.6,0.634,0.571,0.179,0.161,0.131,0.149
